target: MAPK14 (human) (UniProt Q16539); assay: Inhibition of MAPK14 Kinase Activity
Sequence (Q16539 whole entry, looked up): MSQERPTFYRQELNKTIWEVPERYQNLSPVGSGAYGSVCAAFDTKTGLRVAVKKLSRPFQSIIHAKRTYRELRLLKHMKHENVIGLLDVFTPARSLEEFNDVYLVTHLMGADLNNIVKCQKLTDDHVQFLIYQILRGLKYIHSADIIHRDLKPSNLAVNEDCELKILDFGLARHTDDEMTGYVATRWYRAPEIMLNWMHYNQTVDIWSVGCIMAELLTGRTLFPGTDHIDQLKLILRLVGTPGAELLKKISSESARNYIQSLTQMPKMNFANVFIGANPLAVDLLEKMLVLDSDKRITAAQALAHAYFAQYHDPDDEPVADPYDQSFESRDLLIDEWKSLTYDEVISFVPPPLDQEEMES

IC50 [µM]	Structure (SMILES)
≤ 10	O=C(Cc1ccccc1)NC1CCC(Cl)C(N2CC(Oc3ccc(F)cc3F)CCC2=O)C1Cl (stereo not given)
≤ 10	O=C1CCC(Oc2ccc(Cl)cc2Cl)CN1c1c(Cl)csc1Cl (stereo not given)
≤ 10	O=Cc1ccccc1CC1CCC(=O)N(c2c(Cl)cccc2Cl)C1 (stereo not given)
≤ 10	O=C1CCC(Cc2ccc(F)cc2F)CN1C1C(Cl)CC(CO)CC1Cl (stereo not given)
≤ 10	CNc1cc(Cl)c(N2CC(Oc3ccc(F)cc3F)CCC2=O)c(Cl)n1 (stereo not given)
≤ 10	Cc1cc(C)cc(CC2CCC(=O)N(C3C(Cl)CCCC3Cl)C2)c1 (stereo not given)
≤ 10	CNC1CC(Cl)C(N2CC(Oc3ccc(F)cc3F)CCC2=O)C(Cl)C1 (stereo not given)
≤ 10	O=C1CCC(Sc2ccccc2F)CN1c1c(Cl)cncc1Cl (stereo not given)
≤ 10	O=C1CCC(Oc2ccc(Cl)cc2)CN1c1c(Cl)csc1Cl (stereo not given)
≤ 10	COc1ccc(SC2CCC(=O)N(c3c(Cl)csc3Cl)C2)cc1 (stereo not given)
≤ 10	O=C1CCC(Oc2ccccc2Cl)CN1c1c(Cl)cncc1Cl (stereo not given)
≤ 10	O=C1CCC(Oc2ccccc2)CN1C1C(Cl)CCCC1Cl (stereo not given)
≤ 10	O=C1CCC(Cc2ccc3ccccc3c2)CN1C1C(Cl)CCCC1Cl (stereo not given)
≤ 10	COc1ccccc1CC1CCC(=O)N(c2c(Cl)cccc2Cl)C1 (stereo not given)
≤ 10	Nc1ccc(CC2CCC(=O)N(c3c(Cl)cccc3Cl)C2)cc1 (stereo not given)
≤ 10	O=C(Cc1ccccc1)NC1CC(Cl)C(N2CC(Cc3ccc(F)cc3F)CCC2=O)C(Cl)C1 (stereo not given)
≤ 10	C=C(c1ccc(F)cc1F)C1CCC(=O)N(c2c(Cl)cccc2Cl)C1 (stereo not given)
≤ 10	O=C1COC(Cc2ccccc2Cl)CN1c1c(Cl)cccc1Cl (stereo not given)
≤ 10	O=C1CCC(Cc2cc(F)cc(F)c2)CN1C1C(Cl)CCCC1Cl (stereo not given)
≤ 10	O=C1CCC(Sc2ccccc2)CN1c1c(Cl)cncc1Cl (stereo not given)
≤ 10	O=C1CCC(Sc2cccc3ccccc23)CN1c1c(Cl)cccc1Cl (stereo not given)

IC50 [µM]	Structure (SMILES)
≤ 10	O=C1CCC(Cc2ccc(F)cc2F)CN1C1C(Cl)CCC(O)C1Cl (stereo not given)
≤ 10	O=C1CCC(Oc2ccc(F)cc2F)CN1c1c(Cl)ccc(CO)c1Cl (stereo not given)
≤ 10	COCCOCOc1ccccc1CC1CCC(=O)N(c2c(C)cccc2C)C1 (stereo not given)
≤ 10	O=C1CCC(Cc2ccc(F)cc2)CN1c1c(Cl)cccc1Cl (stereo not given)
≤ 10	CNc1ncc(Cl)c(N2CC(Oc3ccc(F)cc3F)CCC2=O)c1Cl (stereo not given)
≤ 10	Cc1ccc(CC2CCC(=O)N(c3c(Cl)cccc3Cl)C2)cc1 (stereo not given)
≤ 10	Cc1cc(C)cc(OC2CCC(=O)N(C3C(Cl)CCCC3Cl)C2)c1 (stereo not given)
≤ 10	O=C1CCC(Cc2cccc3ccccc23)CN1c1c(Cl)cccc1Cl (stereo not given)
≤ 10	Cc1nc[nH]c1CNc1cc(Cl)c(N2CC(Cc3ccccc3)CCC2=O)c(Cl)c1 (stereo not given)
≤ 10	O=C1CCC(Sc2ccc(F)cc2F)CN1C1C(Cl)CC(O)CC1Cl (stereo not given)
≤ 10	COc1ccccc1SC1CCC(=O)N(c2c(Cl)cncc2Cl)C1 (stereo not given)
≤ 10	O=C1CCC(Oc2ccc(F)cc2F)CN1c1c(Cl)ccc(O)c1Cl (stereo not given)
≤ 10	O=C1CCC(Sc2cc(Cl)cc(Cl)c2)CN1C1C(Cl)CCCC1Cl (stereo not given)
≤ 10	COC(=O)/C=C/c1ccccc1CC1CCC(=O)N(c2c(C)cccc2C)C1 (stereo not given)
≤ 10	NC1CCC(Cl)C(N2CC(Cc3ccc(F)cc3F)CCC2=O)C1Cl (stereo not given)
≤ 10	O=C1CCC(Oc2cc(Cl)cc(Cl)c2)CN1c1c(Cl)ccnc1Cl (stereo not given)
≤ 10	O=C1CCC(Sc2ccc(Cl)cc2)CN1c1c(Cl)cccc1Cl (stereo not given)
≤ 10	COc1ccc(CC2CCC(=O)N(c3c(Cl)cncc3Cl)C2)cc1 (stereo not given)
≤ 10	O=C1CCC(Oc2ccc(F)cc2F)CN1c1c(Cl)cncc1Cl (stereo not given)
≤ 10	CCNC(=O)NCc1ccccc1CC1CCC(=O)N(c2c(Cl)cccc2Cl)C1 (stereo not given)
≤ 10	COc1ccc(OC2CCC(=O)N(C3C(Cl)CCCC3Cl)C2)cc1 (stereo not given)

Continued, compound first:

Structure (SMILES)	IC50 [µM]
CN(C)CCN(C(=O)OC(C)(C)C)c1cc(Cl)c(N2CC(Cc3ccc(F)cc3F)CCC2=O)c(Cl)c1 (stereo not given)	≤ 10
C[C@@H]1C[C@H](Cc2ccc(F)cc2F)CN(c2c(Cl)cc(NCCN(C)C)cc2Cl)C1=O	≤ 10
O=C1CCC(Cc2ccc(F)cc2F)CN1c1c(Cl)ccc(CO)c1Cl (stereo not given)	≤ 10
CNc1ccc(Cl)c(N2CC(Cc3ccc(F)cc3F)COC2=O)c1Cl (stereo not given)	≤ 10
CC(C)(C)OC(=O)N1CCC(Nc2cc(Cl)c(N3CC(Cc4ccc(F)cc4F)CCC3=O)c(Cl)c2)CC1 (stereo not given)	≤ 10
Cc1cc(N)cc(C)c1N1CC(Cc2ccc(F)cc2F)CNC1=O (stereo not given)	≤ 10
O=C(Cc1ccccc1)Nc1cc(Cl)c(N2CC(Cc3ccc(F)cc3F)OCC2=O)c(Cl)c1 (stereo not given)	≤ 10
Cc1cccc(C)c1N1C[C@@H](N(C)S(=O)(=O)c2ccc(F)cc2F)CCC1=O	≤ 10
Cc1cc(/C=C/CCN(C)C)cc(C)c1N1CC(Cc2ccc(F)cc2F)CCC1=O (stereo not given)	≤ 10
O=C1CCC(Cc2ccc(F)cc2F)CN1c1c(Cl)sc(O)c1Cl (stereo not given)	≤ 10
CC(C)(C)OC(=O)N(Cc1ccccn1)c1cc(Cl)c(N2CC(Cc3ccc(F)cc3F)CCC2=O)c(Cl)c1 (stereo not given)	≤ 10
CC[C@@H]1C[C@@H](Cc2ccc(F)cc2F)CN(c2c(Cl)cccc2Cl)C1=O	≤ 10
O=C1CCC(Cc2cc(F)cc(F)c2)CN1c1c(Cl)ccnc1Cl (stereo not given)	≤ 10
O=C1CCC(Cc2ccc([N+](=O)[O-])cc2)CN1c1c(Cl)cccc1Cl (stereo not given)	≤ 10
CC(=O)Nc1cc(Cl)c(N2CC(Cc3ccc(F)cc3F)CCC2=O)c(Cl)n1 (stereo not given)	≤ 10
COc1ccc(CC2COC(=O)N(c3c(Cl)cccc3Cl)C2)cc1 (stereo not given)	≤ 10
Nc1cc(Cl)c(N2CC(Cc3ccc(F)cc3F)COC2=O)c(Cl)c1 (stereo not given)	≤ 10
O=C1OCC(Cc2cc(F)cc(F)c2)CN1c1c(Cl)cccc1Cl (stereo not given)	≤ 10
CNc1cc(Cl)c(N2CC(Cc3ccc(F)cc3F)CN(C)C2=O)c(Cl)c1 (stereo not given)	≤ 10
CN1CC(Cc2ccc(F)cc2F)CN(c2c(Cl)ccc(N)c2Cl)C1=O (stereo not given)	≤ 10
O=C1CCC(Cc2ccc(F)cc2F)CN1c1c(Cl)cc(COC(c2ccccc2)(c2ccccc2)c2ccccc2)cc1Cl (stereo not given)	≤ 10
Cc1ccccc1CC1CSC(=O)N(c2c(Cl)cccc2Cl)C1 (stereo not given)	≤ 10
Cc1cc(C)cc(CC2CN(c3c(Cl)cccc3Cl)C(=O)CO2)c1 (stereo not given)	≤ 10

Structure (SMILES)	IC50 [µM]
Cc1ccc(CC2CCC(=O)N(c3c(Cl)cccc3Cl)C2)c(C)c1 (stereo not given)	≤ 10
O=C1NCC(Cc2ccc(F)cc2F)CN1c1c(Cl)cc(O)cc1Cl (stereo not given)	≤ 10
Cc1cc(C)cc(CC2CSC(=O)N(c3c(Cl)cccc3Cl)C2)c1 (stereo not given)	≤ 10
CC(=O)Nc1cc(Cl)c(N2CC(Cc3ccc(F)cc3F)CSC2=O)c(Cl)c1 (stereo not given)	≤ 10
O=C1CCC(Cc2ccc(F)cc2F)CN1c1c(Cl)ncc(O)c1Cl (stereo not given)	≤ 10
O=C1CCC(Sc2ccc(Cl)cc2)CN1c1c(Cl)cncc1Cl (stereo not given)	≤ 10
CNc1cc(Cl)c(N2CC(Cc3ccc(F)cc3F)SCC2=O)c(Cl)c1 (stereo not given)	≤ 10
Cc1cc(C(=O)NCCCN(C)C)cc(C)c1N1CC(Cc2ccc(F)cc2F)CCC1=O (stereo not given)	≤ 10
O=C(CNc1cc(Cl)c(N2CC(Cc3ccc(F)cc3F)CCC2=O)c(Cl)c1)NCCO (stereo not given)	≤ 10
CN(C)Cc1cc(Cl)c(N2CC(Cc3ccc(F)cc3F)CCC2=O)c(Cl)c1 (stereo not given)	≤ 10
NCCCc1cc(Cl)c(N2CC(Cc3ccc(F)cc3F)CCC2=O)c(Cl)c1 (stereo not given)	≤ 10
COC(=O)c1cc(C)c(N2CC(Cc3ccc(F)cc3F)CCC2=O)c(Cl)c1 (stereo not given)	≤ 10
CCOC(=O)CCCNC(=O)c1cc(C)c(N2CC(Cc3ccc(F)cc3F)CCC2=O)c(C)c1 (stereo not given)	≤ 10
Nc1cnc(Cl)c(N2CC(Sc3ccc(F)cc3F)CCC2=O)c1Cl (stereo not given)	≤ 10
CC(C)(C)OC(=O)N(CC(N)=O)c1cc(Cl)c(N2CC(Cc3ccc(F)cc3F)CCC2=O)c(Cl)c1 (stereo not given)	≤ 10
O=C1OCC(Cc2cccc3ccccc23)CN1c1c(Cl)cccc1Cl (stereo not given)	≤ 10
O=C1CCC(Sc2ccc(F)cc2F)CN1c1c(Cl)csc1Cl (stereo not given)	≤ 10
O=C1CCC(Sc2ccc(Cl)cc2Cl)CN1c1c(Cl)cccc1Cl (stereo not given)	≤ 10
O=C(CCCCO)Nc1cc(Cl)c(N2CC(Cc3ccc(F)cc3F)CCC2=O)c(Cl)c1 (stereo not given)	≤ 10
CC(=O)N(C)c1cc(Cl)c(N2CC(Cc3ccc(F)cc3F)CCC2=O)c(Cl)c1 (stereo not given)	≤ 10
O=C1CSC(Cc2cc(F)cc(F)c2)CN1c1c(Cl)cccc1Cl (stereo not given)	≤ 10
CNc1cc(Cl)c(N2CC(Cc3ccc(F)cc3F)CCC2=O)c(Cl)c1 (stereo not given)	≤ 10
O=C1CCC(Cc2ccc(F)cc2F)CN1c1c(Cl)cc(NCCN2CCCC2)cc1Cl (stereo not given)	≤ 10

Structure (SMILES)	IC50 [µM]
O=C1CCC(Sc2ccc(F)cc2F)CN1c1c(Cl)cnc(O)c1Cl (stereo not given)	≤ 10
CC(C)(C)OC(=O)N[C@@H](CO)C(=O)Nc1cc(Cl)c(N2CC(Cc3ccc(F)cc3F)CCC2=O)c(Cl)c1 (stereo not given in full)	≤ 10
Nc1ccc(Cl)c(N2CC(Cc3ccc(F)cc3F)SCC2=O)c1Cl (stereo not given)	≤ 10
COc1ccccc1CC1CSC(=O)N(c2c(Cl)cccc2Cl)C1 (stereo not given)	≤ 10
O=C1COC(Cc2ccc(Cl)cc2Cl)CN1c1c(Cl)cccc1Cl (stereo not given)	≤ 10
CNc1sc(Cl)c(N2CC(Sc3ccc(F)cc3F)CCC2=O)c1Cl (stereo not given)	≤ 10
Cc1cc(C)cc(CC2CCC(=O)N(c3c(Cl)csc3Cl)C2)c1 (stereo not given)	≤ 10
O=C(O)CNc1ccc(Cl)c(N2CC(Cc3ccc(F)cc3F)CCC2=O)c1 (stereo not given)	≤ 10
C[C@H]1C[C@@H](Cc2ccc(F)cc2F)CN(c2c(Cl)cccc2Cl)C1=O	≤ 10
CN1CC(Cc2ccc(F)cc2F)CN(c2c(Cl)cc(N)cc2Cl)C1=O (stereo not given)	≤ 10
Nc1cc(Cl)c(N2CC(Cc3ccc(F)cc3F)CNC2=O)c(Cl)c1 (stereo not given)	≤ 10
Nc1cc(Cl)c(N2CC(Sc3ccc(F)cc3F)CCC2=O)c(Cl)c1 (stereo not given)	≤ 10
Nc1sc(Cl)c(N2CC(Cc3ccc(F)cc3F)CCC2=O)c1Cl (stereo not given)	≤ 10
O=C1CCC(C(=NO)c2ccc(F)cc2F)CN1c1c(Cl)cccc1Cl (stereo not given)	≤ 10
N[C@@H](CO)C(=O)Nc1cc(Cl)c(N2CC(Cc3ccc(F)cc3F)CCC2=O)c(Cl)c1 (stereo not given in full)	≤ 10
Cc1ccc(CC2COC(=O)N(c3c(Cl)cccc3Cl)C2)cc1 (stereo not given)	≤ 10
CS(=O)(=O)NCCNc1cc(Cl)c(N2CC(Cc3ccc(F)cc3F)CCC2=O)c(Cl)c1 (stereo not given)	≤ 10
CNc1cc(Cl)c(N2CC(Cc3ccc(F)cc3F)CCC2=O)c(Cl)n1 (stereo not given)	≤ 10
Cc1cc(CCCCN(C)C)cc(C)c1N1CC(Cc2ccc(F)cc2F)CCC1=O (stereo not given)	≤ 10
Cc1cc(C(=O)NCCN(C)C)cc(C)c1N1CC(Cc2ccc(F)cc2F)CNC1=O (stereo not given)	≤ 10
O=C1OCC(Cc2ccc(F)cc2F)CN1c1c(Cl)cc(O)cc1Cl (stereo not given)	≤ 10
CC(=O)Nc1cc(Cl)c(N2CC(Cc3ccc(F)cc3F)OCC2=O)c(Cl)c1 (stereo not given)	≤ 10

— the Kinase Knowledgebase extract (Sharma et al. 2016)
